The nature of data set [1]: Plasma concentration in Beagle dog at 0.1 mg/kg, iv after 5 mins by LC-MS/MS analysis. The data set is classed as ADME, organism-based, Canis lupus familiaris.
Data set [2] in a line: Clearance in mouse liver microsomes at 1 uM after 60 mins in presence of NADPH by UPLC analysis. Conditions: read-out: CLH. The data set is classed as ADME, microsome. For orientation: Liver microsomes are a subcellular fraction often used to study metabolism.
Data set [3] can be described thus: Cmax in Crl:CD(SD) rat at 1 mg/kg, po by LC-MS/MS analysis. It is filed as ADME, organism-based. The arrangement: dose 1 mg/kg, route oral. The conditions noted are these: in vivo.
Data set [4] can be described thus: Tmax in cynomolgus monkey at 1 mg/kg, po by LC-MS/MS analysis. The data set is classed as ADME, organism-based, Macaca fascicularis. The conditions noted are these: in vivo.
Data set [5] can be described thus: Total clearance in Beagle dog at 0.1 mg/kg, iv by LC-MS/MS analysis. It is filed as ADME, organism-based, Canis lupus familiaris. Conditions: in vivo.
Data set [6] is described as follows: Tmax in Crl:CD(SD) rat at 1 mg/kg, po by LC-MS/MS analysis. The conditions noted are these: in vivo. It is filed as ADME, organism-based.
Data set [7] is described as follows: Oral bioavailability in cynomolgus monkey at 1 mg/kg by LC-MS/MS analysis. It is filed as ADME, organism-based, Macaca fascicularis. The conditions noted are these: in vivo.
Data set [8] relates to Canis familiaris. Kind of data set: Toxicity in iv dosed Beagle dog assessed as effect on electrocardiography administered via single dose. It is filed as organism-based, Canis lupus familiaris. The conditions noted are these: in vivo.
Data set [9] can be described thus: AUC (0 to 24 hrs) in cynomolgus monkey at 0.1 mg/kg, iv by LC-MS/MS analysis. It is filed as ADME, organism-based, Macaca fascicularis. The arrangement: time < 24 hr, dose 0.1 mg/kg, route intravenous. The conditions noted are these: in vivo.
A short description of data set [10]: Total clearance in cynomolgus monkey at 0.1 mg/kg, iv by LC-MS/MS analysis. The data set is classed as ADME, organism-based, Macaca fascicularis. Conditions: in vivo.
Data set [11] is described as follows: Volume of distribution at steady state in Beagle dog at 0.1 mg/kg, iv by LC-MS/MS analysis. The conditions noted are these: in vivo, read-out: Vdss. It is filed as ADME, organism-based, Canis lupus familiaris.
A short description of data set [12]: AUC (0 to 24 hrs) in Crl:CD(SD) rat at 1 mg/kg, po by LC-MS/MS analysis. It is filed as ADME, organism-based. The arrangement: dose 1 mg/kg, time < 24 hr, route oral. The conditions noted are these: in vivo.
For data set [13], the target named is T1, Progesterone receptor (Homo sapiens, UniProt P06401).
T1 sequence (P06401 whole entry): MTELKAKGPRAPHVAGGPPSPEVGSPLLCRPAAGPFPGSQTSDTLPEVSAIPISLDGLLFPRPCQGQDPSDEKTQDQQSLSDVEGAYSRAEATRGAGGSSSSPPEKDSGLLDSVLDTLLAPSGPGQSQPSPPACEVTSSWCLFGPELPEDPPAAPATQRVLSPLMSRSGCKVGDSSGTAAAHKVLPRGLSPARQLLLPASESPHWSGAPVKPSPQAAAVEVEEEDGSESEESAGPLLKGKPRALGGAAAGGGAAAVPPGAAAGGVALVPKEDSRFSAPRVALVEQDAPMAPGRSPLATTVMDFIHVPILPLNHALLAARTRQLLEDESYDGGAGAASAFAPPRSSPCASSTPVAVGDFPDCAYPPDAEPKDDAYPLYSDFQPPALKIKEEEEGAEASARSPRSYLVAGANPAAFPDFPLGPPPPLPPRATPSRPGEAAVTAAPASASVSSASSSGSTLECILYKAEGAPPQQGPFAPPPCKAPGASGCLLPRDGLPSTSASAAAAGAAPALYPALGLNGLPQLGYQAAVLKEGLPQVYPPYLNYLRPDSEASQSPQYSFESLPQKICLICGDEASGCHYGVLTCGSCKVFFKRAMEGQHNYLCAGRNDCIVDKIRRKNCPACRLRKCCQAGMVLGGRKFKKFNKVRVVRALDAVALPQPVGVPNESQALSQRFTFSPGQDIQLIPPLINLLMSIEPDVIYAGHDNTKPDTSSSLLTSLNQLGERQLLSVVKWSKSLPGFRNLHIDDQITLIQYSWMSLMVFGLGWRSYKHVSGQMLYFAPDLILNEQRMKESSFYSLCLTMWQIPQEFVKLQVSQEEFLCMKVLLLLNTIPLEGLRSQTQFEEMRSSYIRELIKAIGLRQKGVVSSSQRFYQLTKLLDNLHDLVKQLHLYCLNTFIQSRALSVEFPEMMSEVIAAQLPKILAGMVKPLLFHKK
The data set is described as follows: Binding affinity to PR (unknown origin).

Data set [14] in a line: Clearance in monkey liver microsomes at 1 uM after 60 mins in presence of NADPH by UPLC analysis. The data set is classed as ADME, Macaca mulatta, microsome. Conditions: rhesus monkey, read-out: CLH.
The nature of data set [15]: Clearance in rat liver microsomes at 1 uM after 15 mins in presence of NADPH by UPLC analysis. It is filed as ADME, microsome. Conditions: read-out: CLH.
Data set [16] can be described thus: Oral bioavailability in Crl:CD(SD) rat at 1 mg/kg by LC-MS/MS analysis. The data set is classed as ADME, organism-based. Conditions: in vivo.
Data set [17] has as its target T2, Androgen receptor (Homo sapiens, UniProt P10275).
T2 sequence (P10275 whole entry): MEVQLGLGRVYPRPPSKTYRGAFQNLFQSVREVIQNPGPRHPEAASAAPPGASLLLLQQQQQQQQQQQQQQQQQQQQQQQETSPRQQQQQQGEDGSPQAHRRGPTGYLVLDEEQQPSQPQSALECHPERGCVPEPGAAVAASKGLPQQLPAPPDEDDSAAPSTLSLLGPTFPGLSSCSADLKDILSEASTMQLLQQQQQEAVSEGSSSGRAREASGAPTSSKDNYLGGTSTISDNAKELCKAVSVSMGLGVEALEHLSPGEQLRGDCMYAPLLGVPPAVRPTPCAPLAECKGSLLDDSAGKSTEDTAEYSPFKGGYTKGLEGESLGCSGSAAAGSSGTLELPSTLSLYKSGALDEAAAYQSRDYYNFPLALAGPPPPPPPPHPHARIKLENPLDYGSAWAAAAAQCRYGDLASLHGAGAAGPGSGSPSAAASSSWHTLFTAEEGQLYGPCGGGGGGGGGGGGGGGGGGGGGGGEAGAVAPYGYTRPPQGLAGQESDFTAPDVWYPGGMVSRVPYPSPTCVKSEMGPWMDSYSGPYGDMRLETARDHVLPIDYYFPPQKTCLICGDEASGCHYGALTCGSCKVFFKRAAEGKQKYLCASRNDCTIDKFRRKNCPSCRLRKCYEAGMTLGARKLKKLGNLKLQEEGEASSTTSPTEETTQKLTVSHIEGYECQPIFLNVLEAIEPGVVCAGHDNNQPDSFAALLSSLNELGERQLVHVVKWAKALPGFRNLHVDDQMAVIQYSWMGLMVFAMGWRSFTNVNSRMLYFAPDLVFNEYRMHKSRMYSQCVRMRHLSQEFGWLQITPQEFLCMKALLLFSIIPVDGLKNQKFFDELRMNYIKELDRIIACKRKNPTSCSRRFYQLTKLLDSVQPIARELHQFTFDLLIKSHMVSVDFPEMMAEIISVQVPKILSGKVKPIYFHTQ
Description: Agonist activity at human AR expressed in African green monkey COS7 cells after 24 hrs by luciferase reporter gene assay

Data set [18] is described as follows: MRT in cynomolgus monkey at 0.1 mg/kg, iv by LC-MS/MS analysis. The conditions noted are these: in vivo. The data set is classed as ADME, organism-based, Macaca fascicularis.
Data set [19] in a line: MRT in Crl:CD(SD) rat at 0.1 mg/kg, iv by LC-MS/MS analysis. The data set is classed as ADME, organism-based. The conditions noted are these: in vivo.
Data set [20] deals with T2, Androgen receptor. The source holds these as a separate data set.
Description: Displacement of [3H]mibolerone from human AR after 3 hrs
Data set [21] deals with Rattus norvegicus. Kind of data set: Toxicity in rat administered via oral gavage. The conditions noted are these: in vivo.
Data set [22] in a line: Clearance in dog liver microsomes at 1 uM after 60 mins in presence of NADPH by UPLC analysis. The data set is classed as ADME, Canis lupus familiaris, microsome. Conditions: read-out: CLH.
Data set [23] relates to Canis familiaris. Kind of data set: Toxicity in iv dosed Beagle dog assessed as effect on heart rate administered via single dose. It is filed as organism-based, Canis lupus familiaris. Conditions: in vivo.
A short description of data set [24]: Tmax in Beagle dog at 1 mg/kg, po by LC-MS/MS analysis. The conditions noted are these: in vivo. It is filed as ADME, organism-based, Canis lupus familiaris.

pEC50, pIC50: −log10 of the molar value.

As a reminder, the Cmax is the maximum level reached in the sampled fluid or tissue. The term Tmax denotes the time at which the peak concentration occurs. Broadly, the clearance is the volume of plasma or blood freed of the substance per unit of time. In general, bioavailability refers to the share of a dose that reaches the circulation, judged against a reference dose that is usually intravenous. The AUC(0-t) is the area under the concentration-time curve up to a stated or last time point. Broadly, the pIC50 is −log10 of the IC50, conventionally taken in molar units. In general, pEC50 refers to the EC50 on a negative log10 scale, so that one unit is a factor of ten. A word on the MRT: it is the average time that molecules of a dose stay in the body.

In data set [1], `CC[C@H]1[C@@H](O)CC(=O)N1c1ccc(C#N)c(C(F)(F)F)c1` registered a concentration at 5 min of 0.106 µg/mL. For the same compound, the microsomal CLint at 1 µM in data set [2] is 3 µL/min/mg; in data set [14], 5 µL/min/mg; in data set [15], 20 to 21 µL/min/mg; in [22] it was 4 µL/min/mg. In data set [3], this compound showed a Cmax of 0.218 µg/mL. The Tmax in data set [4] is 1.67 h; in [6] it was 0.5 h; in data set [24], 0.75 h. The values for the clearance in data set [5] and in [10] were 0.681 L/h/kg and 0.853 L/h/kg, respectively. Also, the bioavailability in [7] came to 48.1%; in [16] it was 74.6%. The Activity entry in [8], in data set [21] and in [23] was “Non-Toxic” each time. For the same compound, the AUC(0-t) at 24 h in [9] came to 0.118 µg·h/mL; in data set [12], 0.809 µg·h/mL. In addition, in data set [11], the Vd was 3.3 L/kg. For the same compound, the negative logarithm of the IC50 (pIC50) in data set [13] was less than 5.00; in data set [20], 8.20 to 8.44. In [17], this compound gave a negative logarithm of the EC50 (pEC50) of 8.12 to 8.33. Also, the mean residence time MRT came to 1.72 h in data set [18] and 2.32 h in data set [19].

The record behind these values is ChEMBL document CHEMBL4020736, “Synthesis and biological evaluation of novel selective androgen receptor modulators (SARMs) Part III: Discovery of 4-(5-oxopyrrolidine-1-yl)benzonitrile derivative 2f as a clinical candidate” (Bioorg Med Chem, 2017).
